Results reported in US9937199B2, “Materials and methods for preventing and treating anastomotic leaks” (THE UNIVERSITY OF CHICAGO, priority 2012, dated 2018).
Values after ≈ are worked out from the molar mass of the structure shown.

Columns and labels:
[1] = tested on: P. aeruginosa MPAO1-P2; experiment: Antibiotic resistance of P2 strain; type: cell-based, Pseudomonas aeruginosa; details: for fold higher resistance of P2 strain compared to P1 strain: P2 vs P1
Method: FIG. 11. Chloramphenicol resistance of P1 and P2 strains. Strains were cultured in TSB containing 250 μg/ml chloramphenicol and grown in 96-well plate (150 μl/well, shaking at 150 rpm, 37° C. Cell density was measured on Plate Reader at OD 600 nm. Values represent the mean of triplicate cultures.

[2] = tested on: P. aeruginosa MPAO1-P1; experiment: Antibiotic resistance of P1 strain; type: cell-based; details: Pseudomonas aeruginosa, MPAO1P1

SMILES | fold higher resistance of P2 strain compared to P1 strain [1] | MIC ([1]; Pseudomonas aeruginosa, MPAO1P2, P2 strain) [µg/mL] | MIC [2] [µg/mL]
O=C(N[C@H](CO)[C@H](O)c1ccc([N+](=O)[O-])cc1)C(Cl)Cl [chloramphenicol] | about 6 fold | – | –
CCn1cc(C(=O)O)c(=O)c2cc(F)c(N3CCNCC3)cc21 [norfloxacin] | 10 fold | 3.8 (≈ 11.9 µM) | 0.38 (≈ 1.19 µM)
